Test results from patent publication US4559362A, “Immunopotentiator” (Zaidan Hojin Biseibutsu Kagaku Kenkyu Kai, priority 1982, dated 1985).
≈ marks a conversion by molar mass, not a printed value. Like-named read-outs stand apart in the source and are kept apart here.

What was measured:
S-180 sarcoma = test: Antitumor effect on S180 sarcoma transplanted subcutaneously into ICR mice; assay type: in vivo; settings: for Weight of tumor ± S.D.: 10 times on alternative days, day 30, in mg (unit assumed)
Protocol: (§1) The pharmacological effects of spermidine will be illustrated by reference to the following experimental examples, in which spermidine was administered as its phosphate dissolved in physiological saline.
(a) The antitumor effect of spermidine was investigated on IMC carcinoma successively transplanted into CDF1 mice and on S180 sarcoma transplanted into ICR mice. 1×10^6 tumor cells of each of the above type were transplanted subcutaneously into such mice (Day 0). From Day 1 onwards, spermidine was intraperitoneally injected a total of 10 times (once daily on alternative days). Thirty days after transplantation of tumor cells, the tumor was removed and weighed to evaluate the effect of spermidine.

[1] = Toxicity given intravenously to mice; assay type: in vivo; settings: 250 mg/kg intravenously
Protocol: Spermidine used in this invention has a very low toxicity. It is not toxic at a dose of 250 mg/kg when given intravenously to mice.

[2] = test system: interleukine-2 production (T blast cells); test: Interleukine-2 production by spleen cells, activity of promoting the proliferation of T blast cells; assay type: cell-based, CDF1 mice; settings: for activity at 0.001 µg/mL / activity at 0.01 µg/mL / activity at 0.1 µg/mL / activity at 1 µg/mL: Mus musculus, 24 h, control = 100, read-out: ^3 H-thymidine incorporation, T blast cells; for activity at 0.001 µg/mL: 0.001 μg/ml; for activity at 0.01 µg/mL: 0.01 μg/ml; for activity at 0.1 µg/mL: 0.1 μg/ml; for activity at 1 µg/mL: 1 μg/ml
Protocol: The effect of spermidine on the production of interleukine was investigated in accordance with the method of Larsson et al. (Larsson, E-L: Mechanism of T cell activation II. Antigen- and lectin-dependent acquisition of responsiveness to TCGF is a nonmitogenic, active response of resting T cells. J. Immunol. 126, 1323-1326, 1981).
Spermidine in a varying concentration was added to 1×10^7 spleen cells/ml of CDF1 mice. In the presence or absence of added concanavalin A (2 μg/ml), the stimulant of interleukine-2 production, the cells were then cultured in a cell incubator kept at 37° C. and at a carbon dioxide concentration of 5% for 24 hours. After completion of the incubation, α-methylmannoside was added to the supernatant to inactivate concanavalin A. The supernatant was collected to examine its interleukine-2 activity. The interleukine-2 activity was determined by the activity of promoting the proliferation of T blast cells and the activity of promoting the division of thymocytes. The latter two activities were determined by measuring ^3 H-thymidine incorporations to both types of cells.

IMC ascites tumor = test: Concomitant treatment with bleomycin and spermidine on IMC ascites tumor, survival; assay type: in vivo, CDF1 mice
Protocol: as §1
(c) 1×10^6 IMC cancer cells were transplanted into CDF1 mice by intraperitoneal injection (Day 0). Bleomycin (5 mg/kg) was administered once daily for 5 consecutive days, and spermidine (5 mg/kg) was administered a total of 10 times on alternative days. The effect of concomitant treatment with spermidine and the anticancer drug was evaluated by considering the number of days that the mice survived.

[3] = test system: alternative pathway of the complement system; test: Activation of the alternative pathway of the complement system (hemolysis of rabbit blood cells in normal human serum); assay type: biochemical; settings: for % consumption of complement component C3: 37° C., 60 minutes
Protocol: The effect of spermidine on the activation of the alternative pathway of the complement system was investigated in accordance with the method of Platts-Mills and Ishizaka (Platt-Mills, T. A. E. and Ishizaka, K.: Activation of the alternative pathway of human complement by rabbit cells. J. Immune. 113, 348-358, 1974).
Spermidine was added to normal human serum in EGTA buffer solution, and the mixture was heated at 37° C. for 60 minutes. Rabbit blood cells were then added to the mixture. The degree of hemolysis was measured with a spectrophotometer at 412 nm to evaluate the effect of spermidine.

L-1210 cells = test: Growth inhibitory effect on cultured L-1210 cells; assay type: cell-based; settings: Mus musculus, L1210, 48 hours, 37° C., read-out: concentration at which 50% of the original cells were inhibited from growth
Protocol: A study was conducted on the growth inhibitory effect of spermidine on cultures of IMC cancer cells and L-1210 cells. IMC cancer cells were cultured in an RPMI 1640 medium containing 10% bovine fetus serum and 2-mercaptoethanol, and L-1210 cells in an MEM medium containing 10% calf serum, for 48 hours at 37° C. in 5% carbon dioxide. The number of cultured cells was counted with a Coulter counter to evaluate the degree of cell proliferation. Spermidine was added at the start of incubation.

NCCCCNCCCN [Spermidine, spermidine]
% inhibition (weight of tumor) (S-180 sarcoma; 0.05 mg/kg/day i.p.): 9% | Weight of tumor ± S.D. (S-180 sarcoma; 0.05 mg/kg/day i.p.): 5193 ± 1522 | % inhibition (weight of tumor) (S-180 sarcoma; 0.5 mg/kg/day i.p.): 35% | Weight of tumor ± S.D. (S-180 sarcoma; 0.5 mg/kg/day i.p.): 3689 ± 1331 | % inhibition (weight of tumor) (S-180 sarcoma; 5 mg/kg/day i.p.): 63% | Weight of tumor ± S.D. (S-180 sarcoma; 5 mg/kg/day i.p.): 2087 ± 1040 | % inhibition (weight of tumor) (S-180 sarcoma; 50 mg/kg/day i.p.): 43% | Weight of tumor ± S.D. (S-180 sarcoma; 50 mg/kg/day i.p.): 3245 ± 1106 | toxicity [1]: not toxic | optimal concentration (interleukin-2 production) [2]: 0.1 µg/mL | activity at 0.001 µg/mL ([2]; with Con A (2 μg/ml)): 94% | activity at 0.001 µg/mL ([2]; without Con A): 137% | activity at 0.01 µg/mL ([2]; with Con A (2 μg/ml)): 153% | activity at 0.01 µg/mL ([2]; without Con A): 152% | activity at 0.1 µg/mL ([2]; with Con A (2 μg/ml)): 157% | activity at 0.1 µg/mL ([2]; without Con A): 166% | activity at 1 µg/mL ([2]; with Con A (2 μg/ml)): 152% | activity at 1 µg/mL ([2]; without Con A): 136% | Survival rate on Day 60 (IMC ascites tumor; spermidine (5 mg/kg) alone): 0/10 | Survival period (IMC ascites tumor; spermidine (5 mg/kg) alone, 10 times on alternative days): 20.1 ± 2.3 days | Increase of life span (IMC ascites tumor; spermidine (5 mg/kg) alone, control = 100): 114% | life span increase against the control group (IMC ascites tumor; spermidine alone): 14% | % consumption of complement component C3 ([3]; 2 mg/ml): 0% | % consumption of complement component C3 ([3]; 4 mg/ml): 66.1% | % consumption of complement component C3 ([3]; 8 mg/ml): 83.6% | activation of the alternative pathway of complement ([3]; 4 to 8 mg/ml): clearly activates the alternative pathway of complement | IC50 (L-1210 cells): 2.8 µg/mL (≈ 19.3 µM)
